Results as given in patent publication US20080227724A1, “Anti-Inflammatory Agents” (CAMBRIDGE UNIVERSITY TECHNICAL SERVICES LIMITED, priority 2003, published 2008).
Bridge positions count the residues as written; N and C are the ends. Square brackets hold non-standard residues; d marks the D form. Ends that are not written are not given here.

Key:
[1] = tested on: MCP-1 induced THP-1 cell migration; assay: Inhibition of MCP-1 induced leukocyte migration (transwell migration assay); assay type: cell-based, human; conditions: inhibition of MCP-1 induced THP-1 cell migration, dose-response curves
Experimental: In principle, this assay consists of two chambers separated by a porous membrane. The chemoattractant is placed in the lower compartment and the cells are placed in the upper compartment. After incubation for a period at 37° C. the cells move towards the chemoattractant, and the number of cells in the lower compartment is proportional to the chemoattractant activity (relative to a series of controls). The THP-1 cell line (European Cell culture Collection) were used as the leukocyte cell population. The following procedure is used for testing the invention compounds for MCP-1 induced leukocyte migration: First, the cell suspension to be placed in the upper compartment is prepared. The THP-1 cells are pelleted by centrifugation (770×g; 4 mins) and washed with Geys Balanced Salt Solution with 1 mg/ml BSA (GBSS+BSA). This wash is then repeated, and the cells repelleted before being resuspended in a small volume of GBSS+BSA for counting, for example using a standard haemocytometer. The volume of GBSS+BSA is then adjusted depending on the number of cells present so that the cells are at final density of 4.45×10^6 cells per ml of GBSS+BSA. […] The number of cells migrated into the lower chamber under each condition can then be determined by a number of methods, including direct counting, labelling with fluorescent or radioactive markers or through the use of a vital dye. […]

TNF-alpha = assay: Sub-lethal LPS-induced endotoxemia model, circulating TNF-alpha; assay type: in vivo, CD-1 mice; conditions: for block of TNF-alpha stimulation: at a suitable dose
Experimental: The anti-inflammatory activity of the compounds of the invention was determined in vivo using a sub-lethal LPS-induced endotoxemia model. Adult male CD-1 mice (n=6 per group) were pretreated with various agents (vehicle, compounds of the invention or positive control agents such as the steroid dexamethasone) by sub-cutaneous injection 30 minutes prior to an acute inflammatory challenge with 750 μg of bacterial lipopolysaccharide (from E. Coli 0111:B4; Sigma catalog #L-4130) via the intraperitoneal route. The vehicle in each case was 0.6% DMSO, 1% carboxymethyl cellulose, or alternatively 1% carboxymethylcellulose alone. For some of the compounds, this formulation results in a finely divided suspension or slurry rather than a clear solution. Two hours after LPS challenge, the animals were sacrificed and blood was drawn by cardiac puncture. The level of the pro-inflammatory cytokine TNF-alpha was determined using the Quantikine M ELISA (R&D Systems) for murine TNF-alpha, and reported as the mean ±standard error for each group.
By 2 hours after the LPS challenge, this had increased by more than 1,000 fold to an average of 20,000 pg/ml, representing a sensitive index of inflammatory activation. Pre-treatment with known anti-inflammatory drugs (such as the steroid dexamethasone) reduced the stimulation of TNF-alpha by up to 85-95%, depending on the dose given.
In a separate series of experiments, the compounds of the invention were administered to animals as an oral suspension, formulated in the same way as for the sub-cutaneous dosing experiments, followed 1 hour later with the LPS challenge exactly as described above. […] All five compounds were maximally active at a dose below 30 mg/kg.

[2] = assay type: in vitro ADME, human
Text: As an approach to identifying such stable analogs, various derivatives of (S)-3-(undec-10-enoyl)-aminoglutarimide have been tested for their stability in serum.

[3] = tested on: chemokine-induced migration; assay: Chemokine-induced leukocyte migration in vitro (prior art); assay type: cell-based; conditions: parental molecule (S)-3-(undec-10-enoyl)-aminoglutarimide
[4] = cited from earlier work
[5] = oral suspension 1 hour before LPS
[6] = sub-cutaneous injection 30 minutes prior to LPS

Row | Compound | block of TNF-alpha stimulation (TNF-alpha; [5]) | block of TNF-alpha stimulation (TNF-alpha; [6]) | further results
1 | (S)-3-(2′,2′-dimethyl-dodecanoyl)amino-caprolactam [Example 12] | able to block TNF-alpha stimulation | block TNF-alpha stimulation to a similar extent to dexamethasone | (S)-enantiomer more active than the (R)-enantiomer [1]: 10-50 fold
2 | C=CCCCCCCCCC(=O)N[C@H]1CCC(=O)NC1=O [NR58,4, (S)-3-(undec-10-enoyl)-aminoglutarimide] | – | – | stability of the aminoglutarimide ring in serum [2]: susceptible to enzymatic ring opening in serum
3 | (S)-3-(2′,2′-Dimethyl-propionyl)amino-caprolactam [Example 20] | able to block TNF-alpha stimulation | block TNF-alpha stimulation to a similar extent to dexamethasone | –
4 | C=CCCCCCCCCC(=O)[C@@H]1CCCNC1=O [(S)-3-(undec-10-enoyl)-tetrahydropyridin-2-one] | – | – | potency compared with the parental molecule [3]: considerably reduced potency; time completely stable in human serum ([2]; human, 7 days): at least 7 days
5 | (S)-(Z)-3-(octadec-9-enoyl)amino-caprolactam [Example 10] | able to block TNF-alpha stimulation | block TNF-alpha stimulation to a similar extent to dexamethasone | –
6 | (S)-(Z)-3-(hexadec-9-enoyl)amino-caprolactam [Example 9] | able to block TNF-alpha stimulation | block TNF-alpha stimulation to a similar extent to dexamethasone | –
7 | c(DCys-DGln-DIle-DTrp-DLys-DGln-DLys-DPro-DAsp-DLeu-DCys)-NH2 ([dC][dQ][dI][dW][dK][dQ][dK][dP][dD][dL][dC]-NH2; disulfide 1-11 (inferred)) [NR58-3.14.3] | – | – | half-life period of clearance from blood plasma ([4]; after intravenous injection): less than 30 minutes; oral bioavailability ([4]; in vivo, po): not orally bioavailable
8 | (R)-3-hexadecanoylamino-caprolactam [Example 7] | able to block TNF-alpha stimulation | block TNF-alpha stimulation to a similar extent to dexamethasone | –
9 | C[C@@H]1C[C@H]2[C@@H]3CCC4=CC(=O)C=C[C@]4(C)[C@@]3(F)[C@@H](O)C[C@]2(C)[C@@]1(O)C(=O)CO [dexamethasone, reference compound] | – | – | reduction of the stimulation of TNF-alpha (TNF-alpha; pre-treatment, 2 hours after LPS challenge, depending on the dose given): 85-95%
